Measurements from US20070010402A1, “Novel herbicides, usage thereof, novel thienopyrimidine derivatives, intermediates of the same, and process for production thereof” (NIHON NOHYAKU CO., LTD.,, priority 2002, published 2007).

Assays:
[1] = system: Chenopodium album; experiment: Field soil treatment test (Test Example 2); type: in vivo; conditions: soil spray after seeding, wettable powder, active ingredient 10 g/a, 21st day from the treatment
Description: (§1) The herbicidal effect was evaluated in terms of herbicidal rate obtained from the following equation: Herbicidal rate (%)=[1−(Weight of weeds above the ground in a treated plot)/(Weight of weeds above the ground in a non-treated plot)]×100 and was expressed by herbicidal index according to the following criteria. [table] Alluvial soil from a field was put in a resin-made vat having an area of 200 cm^2. After fertilization, the seeds of Digitaria ciliaris, Chenopodium album and Polygonum lapathifolium were cast on the soil and uniformly covered with the soil. The wettable powder obtained in Formulation Example 1 was diluted with water and a predetermined amount thereof was sprayed uniformly to the soil by means of a small-sized power pressure spray so as to give 10 g of the active ingredient per an are. Thereafter, cultivation was further continued in the greenhouse, and the herbicidal effect was examined on the 21st day from the treatment. The results obtained are shown in Table 8 (the compound numbers in Table 8 correspond to those in Tables 1 to 6).

[2] = system: Digitaria ciliaris; experiment: Field soil treatment test (Test Example 2); type: in vivo; conditions: soil spray after seeding, wettable powder, active ingredient 10 g/a, 21st day from the treatment
Description: as §1

[3] = system: Polygonum lapathifolium; experiment: Field soil treatment test (Test Example 2); type: in vivo; conditions: soil spray after seeding, wettable powder, active ingredient 10 g/a, 21st day from the treatment
Description: as §1

[4] = system: Echinochloa oryzicola; experiment: Submerged foliar treatment test (Test Example 3); type: in vivo; conditions: water depth 3 cm, cotyledon to 1-leaf stage, wettable powder, active ingredient 10 g/a, 28th day from the treatment
Description: (§2) The herbicidal effect was evaluated in terms of herbicidal rate obtained from the following equation: Herbicidal rate (%)=[1−(Weight of weeds above the ground in a treated plot)/(Weight of weeds above the ground in a non-treated plot)]×100
(§3) and was expressed by herbicidal index according to the following criteria.
(§4) Alluvial soil from a paddy field was put in a resin-made vat having an area of 200 cm^2. After fertilization, seeds of Echinochloa oryzicola, Rotala indica and Scirpus juncoides were cast on the soil and uniformly covered with the soil, and water was poured onto the soil to keep a water depth of 3 cm. Then, cultivation was continued in a greenhouse, and when the weeds to be tested reached the cotyledon stage to 1-leaf stage, the wettable powder obtained in Formulation Example 1 was diluted with water and a predetermined amount thereof was added dropwise uniformly to the weeds by means of a pipette to give 10 g of the active ingredient per an are. Thereafter, cultivation was further continued in the greenhouse, and the herbicidal effect was examined on the 28th day from the treatment. The results obtained are shown in Table 9 (the compound numbers in Table 9 correspond to those in Tables 1 to 6).

[5] = system: Rotala indica; experiment: Submerged foliar treatment test (Test Example 3); type: in vivo; conditions: water depth 3 cm, cotyledon to 1-leaf stage, wettable powder, active ingredient 10 g/a, 28th day from the treatment
Description: as §2, §3, §4

[6] = system: Scirpus juncoides; experiment: Submerged foliar treatment test (Test Example 3); type: in vivo; conditions: water depth 3 cm, cotyledon to 1-leaf stage, wettable powder, active ingredient 10 g/a, 28th day from the treatment
Description: as §2, §3, §4

[7] = system: Brassica juncea; experiment: Field foliar treatment test (Test Example 1); type: in vivo; conditions: foliar spray at 1.0- to 2.0-leaf stage, wettable powder, active ingredient 10 g/a, 21st day from the treatment
Description: (§5) Alluvial soil from a field was put in a resin-made vat having an area of 200 cm^2. After fertilization, the seeds of Echinochloa crus-galli, Brassica juncea, and Ipomoea purpurea were cast on the soil and uniformly covered with the soil. Then, cultivation was continued in a greenhouse, and when the weeds to be tested reached the 1.0- to 2.0-leaf stage, the wettable powder obtained in Formulation Example 1 was diluted with water and a predetermined amount thereof was sprayed uniformly to the weeds by means of a small-sized power pressure spray to give 10 g of the active ingredient per an are. Thereafter, cultivation was further continued in the greenhouse, and the herbicidal effect was examined on the 21st day from the treatment. The results obtained are shown in Table 7 (the compound numbers in Table 7 correspond to those in Table 1 to 6). The herbicidal effect was evaluated in terms of herbicidal rate obtained from the following equation: Herbicidal rate (%)=[1−(Weight of weeds above the ground in a treated plot)/(Weight of weeds above the ground in a non-treated plot)]×100 and was expressed by herbicidal index according to the following criteria. [table]

[8] = system: Echinochloa crus-galli; experiment: Field foliar treatment test (Test Example 1); type: in vivo; conditions: foliar spray at 1.0- to 2.0-leaf stage, wettable powder, active ingredient 10 g/a, 21st day from the treatment
Description: as §5

[9] = system: Ipomoea purpurea; experiment: Field foliar treatment test (Test Example 1); type: in vivo; conditions: foliar spray at 1.0- to 2.0-leaf stage, wettable powder, active ingredient 10 g/a, 21st day from the treatment
Description: as §5

Cc1cc2c(-c3cccc(OC(F)F)c3)nc(OCC(F)(F)F)nc2s1 [6-121]
Herbicidal effect Chenopodium album (herbicidal index) [1]: 5 (91 to 100) | Herbicidal effect Digitaria ciliaris (herbicidal index) [2]: 5 (91 to 100) | Herbicidal effect Polygonum lapathifolium (herbicidal index) [3]: 5 (91 to 100)

Cc1cc2c(-c3cccc(OC(F)F)c3)nc(OCC(F)F)nc2s1 [6-122]
Herbicidal effect Chenopodium album (herbicidal index) [1]: 5 (91 to 100) | Herbicidal effect Digitaria ciliaris (herbicidal index) [2]: 5 (91 to 100) | Herbicidal effect Polygonum lapathifolium (herbicidal index) [3]: 5 (91 to 100)

Cc1cc2c(-c3cccc(C(F)(F)F)c3)nc(OS(C)(=O)=O)nc2s1 [6-148]
Herbicidal effect Chenopodium album (herbicidal index) [1]: 5 (91 to 100) | Herbicidal effect Digitaria ciliaris (herbicidal index) [2]: 5 (91 to 100) | Herbicidal effect Polygonum lapathifolium (herbicidal index) [3]: 4 (71 to 90)

Cc1cc2c(-c3cccc(C(F)(F)F)c3)nc(-n3cccc3)nc2s1 [6-189]
Herbicidal effect Chenopodium album (herbicidal index) [1]: 4 (71 to 90) | Herbicidal effect Digitaria ciliaris (herbicidal index) [2]: 5 (91 to 100) | Herbicidal effect Polygonum lapathifolium (herbicidal index) [3]: 3 (51 to 70)

Cc1cc2c(-c3cccc(C(F)(F)F)c3)nc(-n3ccc(C(F)(F)F)n3)nc2s1 [6-198]
Herbicidal effect Chenopodium album (herbicidal index) [1]: 5 (91 to 100) | Herbicidal effect Digitaria ciliaris (herbicidal index) [2]: 5 (91 to 100) | Herbicidal effect Polygonum lapathifolium (herbicidal index) [3]: 5 (91 to 100)

Cc1cc2c(-c3cccc(OC(F)(F)F)c3)nc(-n3ccc(C(F)(F)F)n3)nc2s1 [6-199]
Herbicidal effect Chenopodium album (herbicidal index) [1]: 5 (91 to 100) | Herbicidal effect Digitaria ciliaris (herbicidal index) [2]: 5 (91 to 100) | Herbicidal effect Polygonum lapathifolium (herbicidal index) [3]: 5 (91 to 100)

Cc1cc2c(-c3cccc(C(F)(F)F)c3)nc(O)nc2s1 [Compound No. 4-3, 6-methyl-4-[3-(trifluoromethyl)phenyl]thieno[2,3-d]pyrimidine-2-ol]
melting point: 251 to 253 °C (dec.)

Cc1cc2c(-c3cccnc3Cl)nc(O)nc2s1 [Compound No. 4-22, 4-(2-chloropyridine-3-yl)-6-methylthieno[2,3-d]pyrimidine-2-ol]
melting point: > 300 °C

Cc1cc2c(-c3cccc(C(F)(F)F)c3)nc(Cl)nc2s1 [Compound No. 5-4, 2-chloro-6-methyl-4-[3-(trifluoromethyl)phenyl]thieno[2,3-d]pyrimidine]
melting point: 108 °C

Cc1cc2c(-c3cccc(Cl)c3)nc(Cl)nc2s1 [Compound No. 5-15, 2-chloro-4-(3-chlorophenyl)-6-methylthieno[2,3-d]pyrimidine]
Herbicidal effect Echinochloa oryzicola (herbicidal index) [4]: 5 (91 to 100) | Herbicidal effect Rotala indica (herbicidal index) [5]: 5 (91 to 100) | Herbicidal effect Scirpus juncoides (herbicidal index) [6]: 3 (51 to 70) | melting point: 118 to 120 °C

Cc1cc2c(-c3sccc3C)nc(Cl)nc2s1 [Compound No. 5-22, 2-chloro-6-methyl-4-(3-methylthiophen-2-yl)thieno[2,3-d]pyrimidine]
melting point: 127 °C

Cc1cc2c(-c3sc(C=O)cc3C)nc(Cl)nc2s1 [Compound No. 5-23, 2-chloro-4-(5-formyl-3-methylthiophen-2-yl)-6-methylthieno[2,3-d]pyrimidine]
melting point: 204 to 206 °C (dec.)

Cc1cc2nc(Cl)nc(-c3cccc(C(F)(F)F)c3)c2s1 [Compound No. 5-34, 2-chloro-6-methyl-4-[3-(trifluoromethyl)phenyl]thieno[3,2-d]pyrimidine]
melting point: 174 to 176 °C (dec.)

Cc1cc2c(-c3cccc(C(F)(F)F)c3)ncnc2s1 [Compound No. 6-9, 6-methyl-4-[3-(trifluoromethyl)phenyl]thieno[2,3-d]pyrimidine]
melting point: 70 to 72 °C

Cc1cc2c(-c3cccc(C(F)(F)F)c3)nc(C#N)nc2s1 [Compound No. 6-10, 2-cyano-6-methyl-4-[3-(trifluoromethyl)phenyl]thieno[2,3-d]pyrimidine]
Herbicidal effect Echinochloa oryzicola (herbicidal index) [4]: 5 (91 to 100) | Herbicidal effect Rotala indica (herbicidal index) [5]: 5 (91 to 100) | Herbicidal effect Scirpus juncoides (herbicidal index) [6]: 4 (71 to 90) | melting point: 121 to 122 °C

Cc1cc2c(-c3cccc(C(F)(F)F)c3)nc(COCC(F)(F)F)nc2s1 [Compound No. 6-17, 6-methyl-2-[(2,2,2-trifluoroethoxy)methyl]-4-[3-(trifluoromethyl)phenyl]thieno[2,3-d]pyrimidine]
Herbicidal effect Echinochloa oryzicola (herbicidal index) [4]: 5 (91 to 100) | Herbicidal effect Rotala indica (herbicidal index) [5]: 5 (91 to 100) | Herbicidal effect Scirpus juncoides (herbicidal index) [6]: 3 (51 to 70) | melting point: 40 to 41 °C

Cc1cc2c(-c3cccc(C(F)(F)F)c3)nc(-c3ccc(C(F)(F)F)cc3)nc2s1 [Compound No. 6-18, 6-methyl-2-[4-(trifluoromethyl)phenyl]-4-[3-(trifluoromethyl)phenyl]thieno[2,3-d]pyrimidine]
Herbicidal effect Echinochloa oryzicola (herbicidal index) [4]: 3 (51 to 70) | Herbicidal effect Rotala indica (herbicidal index) [5]: 4 (71 to 90) | Herbicidal effect Scirpus juncoides (herbicidal index) [6]: 1 (6 to 30) | melting point: 134 to 136 °C

Cc1cc2c(Oc3cccc(C(F)(F)F)c3)nc(OCC(F)(F)F)nc2s1 [Compound No. 6-129, 6-methyl-2-(2,2,2-trifluoroethoxy)-4-[3-(trifluoromethyl)phenoxy]thieno[2,3-d]pyrimidine]
Herbicidal effect Echinochloa oryzicola (herbicidal index) [4]: 5 (91 to 100) | Herbicidal effect Rotala indica (herbicidal index) [5]: 4 (71 to 90) | Herbicidal effect Scirpus juncoides (herbicidal index) [6]: 2 (31 to 50) | melting point: 124 to 125 °C

Cc1cc2c(Oc3cccc(C(F)(F)F)c3)nc(CCC(F)(F)F)nc2s1 [Compound No. 6-130, 6-methyl-4-[3-(trifluoromethyl)phenoxy]-2-(3,3,3-trifluoropropyl)thieno[2,3-d]pyrimidine]
Herbicidal effect Brassica juncea (herbicidal index) [7]: 4 (71 to 90) | Herbicidal effect Echinochloa crus-galli (herbicidal index) [8]: 2 (31 to 50) | Herbicidal effect Ipomoea purpurea (herbicidal index) [9]: 3 (51 to 70) | melting point: 85 °C

CNc1nc(-c2ccc(C(F)(F)F)cc2)c2cc(C)sc2n1 [Compound No. 6-168, 6-methyl-2-(methylamino)-4-[4-(trifluoromethyl)phenyl]thieno[2,3-d]pyrimidine]
melting point: 233 °C

CSc1nc(-c2ccc(C(F)(F)F)cc2)c2cc(C)sc2n1 [Compound No. 6-171, 6-methyl-2-methylthio-4-[4-(trifluoromethyl)phenyl]thieno[2,3-d]pyrimidine]
melting point: 113 °C

Cc1cc2c(-c3cccc(C(F)(F)F)c3)nc(C(=O)O)nc2s1 [Compound No. 6-180, 6-methyl-4-[3-(trifluoromethyl)phenyl]thieno[2,3-d]pyrimidine-2-carboxylic acid]
melting point: 226 to 227 °C (dec.)

Cc1cc2nc(OC(C)C)nc(-c3cccc(C(F)(F)F)c3)c2s1 [Compound No. 6-231, 2-isopropoxy-6-methyl-4-[3-(trifluoromethyl)phenyl]thieno[3,2-d]pyrimidine]
Herbicidal effect Brassica juncea (herbicidal index) [7]: 5 (91 to 100) | Herbicidal effect Echinochloa crus-galli (herbicidal index) [8]: 4 (71 to 90) | Herbicidal effect Ipomoea purpurea (herbicidal index) [9]: 5 (91 to 100) | melting point: 106 °C
